Laboratory results taken from patent US4442031A, “Immunopotentiating peptides” (Hoffmann-La Roche Inc., priority 1983, dated 1984).
Where no end group is shown, it is not given here.

Tests used:
[1] = tested on: Candida albicans ATCC 10231; assay: Protective activity against Candida albicans infection in 5-FU immunosuppressed mice; assay type: in vivo; settings: for Survivors Day 8 / Survivors Day 15: ddY mice; for Survivors at Day 8 after infection: Table 6, i.p., ten times with 5-FU, control 1/7
Description: In a series of examples, the compounds of formula I were tested for protective activity against opportunistic infections in immunosuppressed mice. Female ddY mice (6 weeks old) weighing about 26 g were pretreated daily for ten days with 5-fluorouracil (5-FU) (25 mg/kg/day, i.p.) and with thymosin α1 or with compounds of formula I (i.p.) at varying dosages. The mice were then infected with Candida albicans ATCC 10231 (1×10^5 cells or more) at 24 hour after the last treatment. One control group was administered 5-FU and saline solution and a second control group received neither 5-FU nor compound of formula I prior to infection with Candida albicans. The number of animals surviving eight days after infection with Candida albicans and 15 days after infection with Candida albicans is presented in the table below.
Normal mice (female ddY mice, 6 weeks old) were highly tolerant to infection with Candida albicans ATCC 10231 at relatively low dose (1-2×10^5 cells, iv.). However, when pretreated daily for ten times with 5-FU (25 mg/kg/day, ip.), the mice were susceptible to infection as shown in Table 6. […] Compound A was also shown to be active against infection with Pseudomonas aeruginosa 5E81-1 and Listeria monocytogenes EGD in the immunosuppressed mice (see Tables 7 and 8).

[2] = tested on: delayed-type hypersensitivity (DTH); assay: Restoration of delayed-type hypersensitivity (DTH) decreased by 5-FU in BDF1 mice; assay type: in vivo; settings: i.p.; for DTH response %: % of control
Description: A poor prognosis is often observed in cancer patients with impaired immune response. Impaired immune response can be caused by the cancer itself, by chemotherapeutic agents, or by radiotherapy. Thus, therapeutic agents which restore impaired immune response in cancer patients are expected to play an important role in combination therapy. The restoration activity of the compounds of the invention on impaired cell-mediated immunity was determined by measuring the enhancement of delayed-type hypersensitivity (DTH), which was decreased to a great extent in mice treated with 5-fluorouracil (5-FU).
Female BDF1 mice (20-22 g, 11-12 weeks old) received (i.p. or p.o.) the compound to be tested on consecutive days one day before, concurrently with and 1 and 2 days after the 5-FU treatment. For DTH measurement, 10^8 chicken red blood cells (CRBC) were injected i.p. (or s.c. into the left hind footpad) and challenged s.c. into the right hind footpad at 3 and 7 days after the 5-FU treatment, respectively. Restoration activity was calculated by the following formula from the DTH response observed in the control group, 5-FU treated group treatment and the Test group treated both with 5-FU and the compound of the invention. Restoration activity was calculated by the formula: [formula]

[3] = Example 8, 4.0 μg/kg i.p. daily for ten days with 5-FU
[4] = Example 8, 40.0 μg/kg i.p. daily for ten days with 5-FU
[5] = Table 3, first experiment, 5-FU plus 0.05 μg/kg/day
[6] = Table 3, first experiment, 5-FU plus 0.5 μg/kg/day
[7] = Table 3, first experiment, 5-FU plus 5.0 μg/kg/day
[8] = Table 3, second experiment, 5-FU plus 0.5 μg/kg/day
[9] = Table 3, second experiment, 5-FU plus 5.0 μg/kg/day
[10] = Table 3, second experiment, 5-FU plus 50.0 μg/kg/day

## KSEVVE [Compound B, L-Lysyl-L-seryl-L-glutamyl-L-valyl-L-valyl-L-glutamic acid]
[1]; [3]
  Survivors Day 8: 6/7
  Survivors Day 15: 3/7
[1]; [4]
  Survivors Day 8: 3/7
  Survivors Day 15: 3/7
[1]; Example 9, 4.0 μg/kg i.p. daily for ten days with 5-FU
  Survivors Day 8: 5/7
[1]; Example 9, 40.0 μg/kg i.p. daily for ten days with 5-FU
  Survivors Day 8: 5/7
[1]; 4 μg/kg/day
  Survivors at Day 8 after infection: 5/7
[1]; 40 μg/kg/day
  Survivors at Day 8 after infection: 5/7
[2]; Table 3, first experiment (control 8.5, 5-FU alone 4.8), 5-FU plus 0.05 μg/kg/day
  DTH response av. ± S.E. (0.1 mm): 7.2 ± 0.8 0.1 mm
[2]; Table 3, first experiment (control 8.5, 5-FU alone 4.8), 5-FU plus 0.5 μg/kg/day
  DTH response av. ± S.E. (0.1 mm): 6.5 ± 0.7 0.1 mm
[2]; Table 3, first experiment (control 8.5, 5-FU alone 4.8), 5-FU plus 5.0 μg/kg/day
  DTH response av. ± S.E. (0.1 mm): 8.5 ± 1.0 0.1 mm
[2]; [5]
  Restoration Activity(%): 65.0%
  DTH response %: 84.7%
[2]; [6]
  Restoration Activity(%): 48.0%
  DTH response %: 77.2%
[2]; [7]
  Restoration Activity(%): 100%
  DTH response %: 100%
[2]; Table 3, second experiment (control 15.1, 5-FU alone 8.1), 5-FU plus 0.5 μg/kg/day
  DTH response av. ± S.E. (0.1 mm): 8.5 ± 0.9 0.1 mm
[2]; Table 3, second experiment (control 15.1, 5-FU alone 8.1), 5-FU plus 5.0 μg/kg/day
  DTH response av. ± S.E. (0.1 mm): 8.3 ± 1.8 0.1 mm
[2]; Table 3, second experiment (control 15.1, 5-FU alone 8.1), 5-FU plus 50.0 μg/kg/day
  DTH response av. ± S.E. (0.1 mm): 9.4 ± 0.8 0.1 mm
[2]; [8]
  Restoration Activity(%): 6.5%
  DTH response %: 56.4%
[2]; [9]
  Restoration Activity(%): 3.1%
  DTH response %: 54.8%
[2]; [10]
  Restoration Activity(%): 18.3%
  DTH response %: 61.9%
[2]; Tables 2 and 3
  DTH restoration activity (in words): active
